From paper PMC7413254 (Nature Communications, 2020)
Numbering of substitutions follows the chain as printed. Where two headings read alike, the source gives them in different places.

What was measured:
[1] = molecular target: T1, PfCRT^3D7 in C2^GC03 parasites (Plasmodium falciparum, UniProt Q8IBZ9); test: P. falciparum H+-efflux assay (rate of DV alkalinisation after concanamycin A); format: cell-based; conditions: C2GC03; test solute 10 μM
T1 construct: PfCRT also functions as a peptide transporter within its native environment of the DV membrane; expressed in transfected cells; host or cells: P. falciparum pfcrt transfectant line C2^GC03 (saponin-isolated trophozoites)
T1 sequence (Q8IBZ9 1-424): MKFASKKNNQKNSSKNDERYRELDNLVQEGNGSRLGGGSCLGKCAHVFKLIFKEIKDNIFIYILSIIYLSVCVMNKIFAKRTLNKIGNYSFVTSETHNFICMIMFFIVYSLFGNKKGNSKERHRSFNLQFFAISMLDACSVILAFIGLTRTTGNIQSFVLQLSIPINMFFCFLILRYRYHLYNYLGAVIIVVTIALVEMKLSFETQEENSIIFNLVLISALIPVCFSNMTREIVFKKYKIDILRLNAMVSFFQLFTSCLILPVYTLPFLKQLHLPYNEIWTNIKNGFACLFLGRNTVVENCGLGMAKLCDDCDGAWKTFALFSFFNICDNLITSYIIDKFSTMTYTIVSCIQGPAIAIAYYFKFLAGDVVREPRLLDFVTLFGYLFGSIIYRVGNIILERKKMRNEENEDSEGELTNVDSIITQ

[2] = molecular target: T2, PfCRT^Dd2 in C4^Dd2 parasites (Plasmodium falciparum, UniProt Q8IBZ9, A220S/I356T/K76T/M74I/N326S/N75E/Q271E/R371I); test: as above; format: cell-based; conditions: C4Dd2; test solute 10 μM
T2 construct: PfCRT also functions as a peptide transporter within its native environment of the DV membrane; expressed in transfected cells; host or cells: P. falciparum pfcrt transfectant line C4^Dd2 (saponin-isolated trophozoites)
T2 sequence (Q8IBZ9 1-424 M74I/N75E/K76T/A220S/Q271E/N326S/I356T/R371I): T1 sequence (Q8IBZ9 1-424) with M74I, N75E, K76T, A220S, Q271E, N326S, I356T, R371I

[3] = system: non-expressing oocytes; test: cells; format: cell-based, Xenopus laevis; conditions: Xenopus laevis, Oocyte
In short: (§1)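 Each treatment used ten oocytes, repeated in at least four experiments on different days with oocytes from different frogs. Conditions: ND96 pH 5.5, 27.5 °C, 1.5 h; read-out by scintillation counting.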

[4] = molecular target: T3, PfCRT^3D7 (Plasmodium falciparum, UniProt Q8IBZ9); test: cell-based; format: cell-based
In short: as §1

[5] = molecular target: PfCRT^Dd2 (Plasmodium falciparum, UniProt Q9N623, A220S/I356T/K76T/M74I/N326S/N75E/Q271E/R371I); test: [3H]CQ uptake into Xenopus oocytes, cis-inhibition by unlabelled solute; format: cell-based
PfCRT^Dd2, sequence (Q9N623 whole entry A220S/I356T/K76T/M74I/N326S/N75E/Q271E/R371I): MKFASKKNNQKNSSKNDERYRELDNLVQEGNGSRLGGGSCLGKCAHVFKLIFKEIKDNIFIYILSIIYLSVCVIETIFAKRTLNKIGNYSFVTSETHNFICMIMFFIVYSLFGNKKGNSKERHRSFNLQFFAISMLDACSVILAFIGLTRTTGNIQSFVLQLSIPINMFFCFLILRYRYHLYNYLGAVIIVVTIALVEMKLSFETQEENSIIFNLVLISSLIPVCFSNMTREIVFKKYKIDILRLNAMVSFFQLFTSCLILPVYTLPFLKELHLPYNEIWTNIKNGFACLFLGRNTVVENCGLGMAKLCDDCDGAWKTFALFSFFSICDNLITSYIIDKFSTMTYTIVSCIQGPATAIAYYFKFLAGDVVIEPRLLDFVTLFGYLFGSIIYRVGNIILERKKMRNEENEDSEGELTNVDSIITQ
In short: as §1

[6] = molecular target: PfCRT^Ecu1110 (Plasmodium falciparum, UniProt Q9N623, A220S/I356L/K76T/N326D); test: as above; format: cell-based
PfCRT^Ecu1110, sequence (Q9N623 whole entry A220S/I356L/K76T/N326D): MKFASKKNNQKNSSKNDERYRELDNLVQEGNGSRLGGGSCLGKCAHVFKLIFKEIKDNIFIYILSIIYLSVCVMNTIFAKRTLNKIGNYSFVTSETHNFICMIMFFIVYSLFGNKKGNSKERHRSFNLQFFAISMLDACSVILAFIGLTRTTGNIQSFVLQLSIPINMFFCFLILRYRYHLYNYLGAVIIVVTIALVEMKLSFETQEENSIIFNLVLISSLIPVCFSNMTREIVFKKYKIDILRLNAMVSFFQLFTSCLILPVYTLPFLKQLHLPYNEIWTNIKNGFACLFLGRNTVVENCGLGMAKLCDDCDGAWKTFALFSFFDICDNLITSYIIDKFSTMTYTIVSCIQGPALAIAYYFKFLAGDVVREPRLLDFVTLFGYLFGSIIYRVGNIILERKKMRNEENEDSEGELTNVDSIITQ
In short: as §1

[7] = system: non-expressing oocytes; format: cell-based, Xenopus laevis; conditions: SEM
In short: (§2)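 Oocytes (ten per treatment, ≥4 independent frogs/days) were preloaded by injecting VF-6 in 25 nL ND96 at pH 5.0, 5.5, 6.0 or 7.0, or Na^+-free choline buffer, then uptake run 1.5 h, 27.5 °C, ND96 pH 5.5 by default. Internal concentrations assumed ~400 nL oocyte volume.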

[8] = molecular target: T3, PfCRT^3D7; test: cell-based; format: cell-based; conditions: SEM
In short: as §2

[9] = molecular target: T4, PfNT1 (Plasmodium falciparum, UniProt Q8IDM6); test: cell-based; format: cell-based; conditions: […], read-out: Uptake of [3H]CQ (% PfCRTDd2 control), trans-stimulation, PfNT1; SEM
T4 construct: expressed in transfected cells; host or cells: Xenopus laevis oocytes (stage V-VI), cRNA-injected
T4 sequence (Q8IDM6 whole entry): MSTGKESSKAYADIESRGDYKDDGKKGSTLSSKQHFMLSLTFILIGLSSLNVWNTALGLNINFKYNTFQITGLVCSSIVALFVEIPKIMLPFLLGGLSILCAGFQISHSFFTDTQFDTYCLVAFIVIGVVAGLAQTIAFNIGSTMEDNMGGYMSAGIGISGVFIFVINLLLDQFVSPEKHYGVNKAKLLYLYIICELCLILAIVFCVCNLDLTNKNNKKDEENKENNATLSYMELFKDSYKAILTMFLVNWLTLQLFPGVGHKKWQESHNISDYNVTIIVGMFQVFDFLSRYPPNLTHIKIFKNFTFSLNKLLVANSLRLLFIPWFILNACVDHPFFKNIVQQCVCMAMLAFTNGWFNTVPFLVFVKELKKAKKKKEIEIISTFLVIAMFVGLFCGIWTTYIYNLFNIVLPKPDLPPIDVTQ
In short: as §2

[10] = system: PfCRT; test: Influx of VF-6 via PfCRT into the oocyte, solutes tested as potential co-substrates; format: cell-based, Plasmodium falciparum; set-up: key: X: Compounds that have been tested as potential co-substrates but are not required for influx of VF-6 via PfCRT into the oocyte; conditions: X marks the solute
[11] = system: PfCRT; test: Test of solutes as potential co-substrates for influx of VF-6 via PfCRT into the oocyte; format: cell-based, Plasmodium falciparum; set-up: key: X: Compounds that have been tested as potential co-substrates but are not required for influx of VF-6 via PfCRT into the oocyte; conditions: X = tested
[12] = system: PfCRT; test: Potential co-substrates tested for influx of VF-6 via PfCRT into the oocyte; format: cell-based, Plasmodium falciparum; set-up: key: X: Compounds that have been tested as potential co-substrates but are not required for influx of VF-6 via PfCRT into the oocyte
[13] = molecular target: T5, PfCRT^7G8 in C6^7G8 parasites (Plasmodium falciparum, UniProt Q8IBZ9, A220S/C72S/I351M/I356L/K76T/N326D); test: P. falciparum H+-efflux assay (rate of DV alkalinisation after concanamycin A); format: cell-based; conditions: C67G8; test solute 10 μM
T5 construct: PfCRT also functions as a peptide transporter within its native environment of the DV membrane; expressed in transfected cells; host or cells: P. falciparum pfcrt transfectant line C6^7G8 (saponin-isolated trophozoites)
T5 sequence (Q8IBZ9 1-424 C72S/K76T/A220S/N326D/I351M/I356L): T1 sequence (Q8IBZ9 1-424) with C72S, K76T, A220S, N326D, I351M, I356L

[14] = read-out: Uptake of [3H]CQ (% PfCRTDd2 control), cis-inhibition, non-expressing oocytes, SEM
[15] = read-out: Uptake of [3H]CQ (% non-expressing oocyte control), cis-inhibition
[16] = read-out: Uptake of [3H]CQ (% PfCRTDd2 control), cis-inhibition, PfCRT3D7, SEM
[17] = read-out: PfCRT-mediated [3H]CQ transport, cis-inhibition (% PfCRTDd2 control)
[18] = read-out: PfCRT-mediated [3H]CQ transport, cis-inhibition (% PfCRTEcu1110 control)
[19] = read-out: Uptake of [3H]CQ (% PfCRTDd2 control), cis-inhibition, PfCRTEcu1110, SEM
[20] = read-out: Uptake of [3H]CQ (% PfCRTEcu1110 control), cis-inhibition
[21] = read-out: [3H]CQ transport (% PfCRTEcu1110 control), cis-inhibition, PfCRTEcu1110, SEM

## CC(C)C[C@H](NC(=O)[C@H]1O[C@@H]1C(=O)O)C(=O)NCCCCN=C(N)N [E-64]
[1]
  Effect on rate of DV alkalinisation / H+ leak (in words): caused a H^+ leak
[2]
  Effect on rate of DV alkalinisation / H+ leak (in words): neither peptide exerted an effect

## O=C(O)[C@@H]1CCCN1 [L-proline]
[3]; [14]
  inhibition at 500 µM: 2.8 ± 0.09%
  inhibition at 1000 µM: 3.1 ± 0.03%
  inhibition at 2000 µM: 3.4 ± 0.07%
[3]; [15]
  inhibition at 500 µM: 99 ± 3.3%
  inhibition at 1000 µM: 100 ± 3.5%
  inhibition at 2000 µM: 97 ± 5.3%
[4]; read-out: Uptake of [3H]CQ (% PfCRT3D7 control), cis-inhibition
  inhibition at 500 µM: 99 ± 6.2%
[4]; [16]
  inhibition at 500 µM: 2.3 ± 0.01%
  inhibition at 2000 µM: 2.6 ± 0.04%
[5]; [17]
  inhibition at 500 µM: 95 ± 4.2%
  inhibition at 1000 µM: 96 ± 3.2%
[5]; read-out: Uptake of [3H]CQ (% PfCRTDd2 control), cis-inhibition, PfCRTDd2, SEM
  inhibition at 1000 µM: 98 ± 4.8%
[6]; [18]
  inhibition at 500 µM: 98 ± 4.6%
  inhibition at 1000 µM: 94 ± 3.6%
  inhibition at 2000 µM: 95 ± 2.6%
[6]; [19]
  inhibition at 500 µM: 33 ± 1.4%
  inhibition at 1000 µM: 31 ± 1.5%
  inhibition at 2000 µM: 32 ± 1.4%
[6]; [20]
  inhibition at 500 µM: 100 ± 7.7%
  inhibition at 1000 µM: 96 ± 8.1%
  inhibition at 2000 µM: 96 ± 4.3%
[6]; [21]
  inhibition at 500 µM: 30 ± 1.4%
  inhibition at 1000 µM: 28 ± 0.6%
  inhibition at 2000 µM: 29 ± 1.4%
[7]
  Uptake of [3H]CQ (% PfCRTDd2 control), trans-stimulation, non-expressing oocytes: 2.6 ± 0.08 % PfCRTDd2 control
[8]
  [3H]CQ transport (% PfCRT3D7 control), trans-stimulation, PfCRT3D7: 0.2 ± 0.02 % PfCRT3D7 control
[9]
  activity at 5000 µM: 3.1 ± 0.08%
[10]
  Compounds that have been tested as potential co-substrates but are not required for influx of VF-6 via PfCRT into the oocyte: X
[11]
  Tested as potential co-substrate but not required for influx of VF-6 via PfCRT into the oocyte: X
[12]
  Tested as potential co-substrate but not required for influx of VF-6 via PfCRT into the oocyte: X

## CC(=O)N[C@@H](CC(C)C)C(=O)N[C@@H](CC(C)C)C(=O)N[C@H](C=O)CCCNC(=N)N [Leupeptin, leupeptin]
[1]
  Effect on rate of DV alkalinisation / H+ leak (in words): caused a H^+ leak
[13]
  Effect on rate of DV alkalinisation / H+ leak (in words): induced a H^+ leak
[2]
  Effect on rate of DV alkalinisation / H+ leak (in words): neither peptide exerted an effect

## Cc1cccc(C)c1OCC(=O)N[C@@H](Cc1ccccc1)[C@@H](O)C[C@H](Cc1ccccc1)NC(=O)[C@H](C(C)C)N1CCCNC1=O [lopinavir]
[1]
  Effect on rate of DV alkalinisation / H+ leak (in words): without effect
[13]
  Effect on rate of DV alkalinisation / H+ leak (in words): without effect
[2]
  Effect on rate of DV alkalinisation / H+ leak (in words): without effect

## CC(C)c1nc(CN(C)C(=O)N[C@H](C(=O)N[C@@H](Cc2ccccc2)C[C@H](O)[C@H](Cc2ccccc2)NC(=O)OCc2cncs2)C(C)C)cs1 [ritonavir]
[1]
  Effect on rate of DV alkalinisation / H+ leak (in words): without effect
[13]
  Effect on rate of DV alkalinisation / H+ leak (in words): without effect
[2]
  Effect on rate of DV alkalinisation / H+ leak (in words): without effect
